Key:
Japanese bulrush = experiment: Test Example 1: herbicidal activity, application before weed generation under submerged conditions (Table 16, symbol B); assay type: in vivo, Japanese bulrush (Schoenoplectus juncoides); conditions: 320 g/ha applied herbicide
Summary of the method: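 Alluvial soil was flooded to 4 cm depth, weed seeds were sown mixed and 2.5-leaf rice seedlings were transplanted. On sowing day, the compound's emulsion, diluted in water to a set dose, was applied to the water surface. Plants grew at 25–30 °C and were scored 0–5 after three weeks.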

late watergrass = experiment: Test Example 2: herbicidal activity, application during weed generation under submerged conditions (Table 17, symbol A); assay type: in vivo, late watergrass (Echinochloa oryzicola); conditions: AAH 320 g/ha; application during weed generation, submerged conditions
Summary of the method: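 Effect on each weed is rated three weeks post-treatment, using the same scoring criteria as the preceding test. Plants grow from mixed-sown seed in flooded alluvial soil (4 cm water) at 25° C. to 30° C., and are treated at one to two leaves with diluted emulsion dropped onto the water.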

barnyard grass [1] = experiment: Test Example 3: herbicidal effect by foliage application, Wagner pot (Table 18, symbol H); assay type: in vivo, barnyard grass (Echinochloa crus-galli); conditions: for herbicidal effect on H: barnyard grass: amount of applied herbicide 320 g/ha; for herbicidal effect on H (barnyard grass), rating 0-5: 320 g/ha
Summary of the method: (§1)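 Plants were sown in alluvial soil held under 0.1–0.5 cm standing water and grown 14 days in a greenhouse at 25–30 °C. An emulsifiable formulation, water-diluted to the set dose, was then sprayed onto the foliage, and effects were scored three weeks later using previously defined criteria.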

Chinese sprangletop = experiment: Test Example 3: herbicidal effect by foliage application, Wagner pot (Table 18, symbol D); assay type: in vivo, chinese sprangletop (Leptochloa chinensis); conditions: for herbicidal effect on D: Chinese sprangletop: amount of applied herbicide 320 g/ha; for herbicidal effect on D (Chinese sprangletop), rating 0-5: 320 g/ha
Summary of the method: as §1

southern crabgrass = experiment: Test Example 4: herbicidal effect by soil treatment (Table 19, symbol F); assay type: in vivo, southern crabgrass (Digitaria ciliaris); conditions: for herbicidal effect on F: southern crabgrass: amount of applied herbicide 320 g/ha; for herbicidal effect rating, F: southern crabgrass: 320 g/ha
Summary of the method: (§2)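 Seeds were sown in sterilized diluvial soil and covered with about 1.5 cm of soil. An emulsion formulation diluted with water to a predetermined herbicide amount was sprayed evenly onto the soil surface. Plants grew in a greenhouse at 25° C. to 30° C., and the effect was scored three weeks after application using criteria from an earlier test.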

green foxtail = experiment: Test Example 4: herbicidal effect by soil treatment (Table 19, symbol G); assay type: in vivo, green foxtail (Setaria viridis); conditions: for herbicidal effect on G: green foxtail: amount of applied herbicide 320 g/ha; for herbicidal effect rating, G: green foxtail: 320 g/ha
Summary of the method: as §2

barnyard grass [2] = experiment: Test Example 4: herbicidal effect by soil treatment (Table 19, symbol H); assay type: in vivo, barnyard grass (Echinochloa crus-galli); conditions: for herbicidal effect on H: barnyard grass: amount of applied herbicide 320 g/ha; for herbicidal effect rating, H: barnyard grass: 320 g/ha
Summary of the method: as §2

velvetleaf = experiment: Test Example 4: herbicidal effect by soil treatment (Table 19, symbol M); assay type: in vivo, velvetleaf (Abutilon theophrasti); conditions: for herbicidal effect on M: velvetleaf: amount of applied herbicide 320 g/ha; for herbicidal effect rating, M: velvetleaf: 320 g/ha
Summary of the method: as §2

redroot pigweed = experiment: Test Example 4: herbicidal effect by soil treatment (Table 19, symbol N); assay type: in vivo, redroot pigweed (Amaranthus retroflexus); conditions: for herbicidal effect on N: redroot pigweed: amount of applied herbicide 320 g/ha; for herbicidal effect rating, N: redroot pigweed: 320 g/ha
Summary of the method: as §2

lambsquarters [3] = experiment: Test Example 4: herbicidal effect by soil treatment (Table 19, symbol O); assay type: in vivo, lambsquarters (Chenopodium album); conditions: for herbicidal effect on O: lambsquarters: amount of applied herbicide 320 g/ha; for herbicidal effect rating, O: lambsquarters: 320 g/ha
Summary of the method: as §2

chickweed = experiment: Test Example 4: herbicidal effect by soil treatment (Table 19, symbol P); assay type: in vivo, common chickweed (Stellaria media); conditions: for herbicidal effect on P: chickweed: amount of applied herbicide 320 g/ha; for herbicidal effect rating, P: chickweed: 320 g/ha
Summary of the method: as §2

wild oat = experiment: Test Example 5: herbicidal effect by foliage application, plastic box (Table 20, symbol I); assay type: in vivo, wild oat (Avena fatua); conditions: foliage application; for I: wild oat, herbicidal effect (criteria 0-5): AAH 320 g/ha
Summary of the method: (§3)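 Plants sown in sterilized diluvial soil and grown 14 days in a greenhouse at 25° C to 30° C, then sprayed on the foliage with the compound's emulsion diluted in water to a predetermined herbicide amount. Injury to weeds and crops scored three weeks after application on a visual rating scale.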

blackgrass [4] = experiment: Test Example 5: herbicidal effect by foliage application, plastic box (Table 20, symbol J); assay type: in vivo, blackgrass (Alopecurus myosuroides); conditions: foliage application; for J: blackgrass, herbicidal effect (criteria 0-5): AAH 320 g/ha
Summary of the method: as §3

Italian ryegrass = experiment: Test Example 5: herbicidal effect by foliage application, plastic box (Table 20, symbol K); assay type: in vivo, Italian ryegrass (Lolium multiflorum); conditions: foliage application; for K: Italian ryegrass, herbicidal effect (criteria 0-5): AAH 320 g/ha
Summary of the method: as §3

windgrass = experiment: Test Example 5: herbicidal effect by foliage application, plastic box (Table 20, symbol L); assay type: in vivo, windgrass (Apera spica-venti); conditions: foliage application; for L: windgrass, herbicidal effect (criteria 0-5): AAH 320 g/ha
Summary of the method: as §3

lambsquarters [5] = experiment: Test Example 5: herbicidal effect by foliage application, plastic box (Table 20, symbol O); assay type: in vivo, lambsquarters (Chenopodium album); conditions: foliage application; for O: lambsquarters, herbicidal effect (criteria 0-5): AAH 320 g/ha
Summary of the method: as §3

blackgrass [6] = experiment: Test Example 4: herbicidal effect by soil treatment (Table 19, symbol J); assay type: in vivo, blackgrass (Alopecurus myosuroides); conditions: 320 g/ha
Summary of the method: as §2

[7] = evaluated three weeks after application
[8] = 320 g/ha, 3 weeks after application
[9] = 320 g/ha, evaluated three weeks after application

| SMILES | Herbicidal effect on B: Japanese bulrush (grade 0-5) (Japanese bulrush) | herbicidal effect rating, A: late watergrass (late watergrass) | herbicidal effect on H: barnyard grass (barnyard grass [1]) | herbicidal effect on D: Chinese sprangletop (Chinese sprangletop) | herbicidal effect on F: southern crabgrass (southern crabgrass) | herbicidal effect on G: green foxtail (green foxtail) | herbicidal effect on H: barnyard grass (barnyard grass [2]) | herbicidal effect on M: velvetleaf (velvetleaf) | herbicidal effect on N: redroot pigweed (redroot pigweed) | herbicidal effect on O: lambsquarters (lambsquarters [3]) | herbicidal effect on P: chickweed (chickweed) | I: wild oat, herbicidal effect (criteria 0-5) (wild oat; [7]) | J: blackgrass, herbicidal effect (criteria 0-5) (blackgrass [4]; [7]) | K: Italian ryegrass, herbicidal effect (criteria 0-5) (Italian ryegrass; [7]) | L: windgrass, herbicidal effect (criteria 0-5) (windgrass; [7]) | O: lambsquarters, herbicidal effect (criteria 0-5) (lambsquarters [5]; [7]) | herbicidal effect on H (barnyard grass), rating 0-5 (barnyard grass [1]) | herbicidal effect on D (Chinese sprangletop), rating 0-5 (Chinese sprangletop) | herbicidal effect rating, F: southern crabgrass (southern crabgrass) | herbicidal effect rating, G: green foxtail (green foxtail) | other results |
| --- | --- | --- | --- | --- | --- | --- | --- | --- | --- | --- | --- | --- | --- | --- | --- | --- | --- | --- | --- | --- | --- |
| C=C(C)C(=O)Oc1c(C)nn(C)c(=O)c1-c1c(-c2ccc(OC(F)F)cc2)sc2ccc(F)cc12 [2-281] | 5 (Herbicidal rate of 90% or more (almost completely withered)) | 5 (Herbicidal rate of 90% or more (almost completely withered)) | 5 (Herbicidal rate of 90% or more (almost completely withered)) | 3 (Herbicidal rate of 40% or more and less than 70%) | 3 (Herbicidal rate of 40% or more and less than 70%) | 4 (Herbicidal rate of 70% or more and less than 90%) | 4 (Herbicidal rate of 70% or more and less than 90%) | 4 (Herbicidal rate of 70% or more and less than 90%) | 5 (Herbicidal rate of 90% or more (almost completely withered)) | 5 (Herbicidal rate of 90% or more (almost completely withered)) | 4 (Herbicidal rate of 70% or more and less than 90%) | 4 (Herbicidal rate of 70% or more and less than 90%) | 4 (Herbicidal rate of 70% or more and less than 90%) | 5 (Herbicidal rate of 90% or more (almost completely withered)) | 5 (Herbicidal rate of 90% or more (almost completely withered)) | 5 (Herbicidal rate of 90% or more (almost completely withered)) | – | – | – | – | – |
| C=CCOC(=O)Oc1c(C)nn(C)c(=O)c1-c1c(-c2ccc(OC(F)F)cc2)sc2ccc(F)cc12 [2-294] | 5 (Herbicidal rate of 90% or more (almost completely withered)) | 3 (Herbicidal rate of 40% or more and less than 70%) | 5 (Herbicidal rate of 90% or more (almost completely withered)) | 4 (Herbicidal rate of 70% or more and less than 90%) | 5 (Herbicidal rate of 90% or more (almost completely withered)) | 5 (Herbicidal rate of 90% or more (almost completely withered)) | 5 (Herbicidal rate of 90% or more (almost completely withered)) | 5 (Herbicidal rate of 90% or more (almost completely withered)) | 5 (Herbicidal rate of 90% or more (almost completely withered)) | 5 (Herbicidal rate of 90% or more (almost completely withered)) | 5 (Herbicidal rate of 90% or more (almost completely withered)) | 3 (Herbicidal rate of 40% or more and less than 70%) | 4 (Herbicidal rate of 70% or more and less than 90%) | 5 (Herbicidal rate of 90% or more (almost completely withered)) | 3 (Herbicidal rate of 40% or more and less than 70%) | 5 (Herbicidal rate of 90% or more (almost completely withered)) | – | – | – | – | – |
| COCCSCc1ccc(-c2sc3ccc(F)cc3c2-c2c(O)c(C)nn(C)c2=O)cc1 [2-327] | 3 (Herbicidal rate of 40% or more and less than 70%) | 0 (Herbicidal rate of 5% or less (almost no effect)) | 5 (Herbicidal rate of 90% or more (almost completely withered)) | 3 (Herbicidal rate of 40% or more and less than 70%) | 2 (Herbicidal rate of 20% or more and less than 40%) | 4 (Herbicidal rate of 70% or more and less than 90%) | 3 (Herbicidal rate of 40% or more and less than 70%) | 1 (Herbicidal rate of 5% or more and less than 20%) | 4 (Herbicidal rate of 70% or more and less than 90%) | 4 (Herbicidal rate of 70% or more and less than 90%) | 1 (Herbicidal rate of 5% or more and less than 20%) | 3 (Herbicidal rate of 40% or more and less than 70%) | 4 (Herbicidal rate of 70% or more and less than 90%) | 4 (Herbicidal rate of 70% or more and less than 90%) | 5 (Herbicidal rate of 90% or more (almost completely withered)) | 5 (Herbicidal rate of 90% or more (almost completely withered)) | – | – | – | – | – |
| Cc1nn(C)c(=O)c(-c2c(-c3ccc(Cl)cc3)sc3ccc(F)cc23)c1O [Compound No. 2-010, 4-(2-(4-chlorophenyl)-5-fluorobenzo[b]thiophen-3-yl)-5-hydroxy-2,6-dimethylpyridazin-3(2H)-one] | 3 (Herbicidal rate of 40% or more and less than 70%) | – | – | – | – | – | – | – | – | – | – | – | – | – | – | – | 5 (Herbicidal rate of 90% or more (almost completely withered)) | 4 (Herbicidal rate of 70% or more and less than 90%) | 5 (Herbicidal rate of 90% or more (almost completely withered)) | 5 (Herbicidal rate of 90% or more (almost completely withered)) | herbicidal effect rating, H: barnyard grass (barnyard grass [2]): 5 (Herbicidal rate of 90% or more (almost completely withered)); herbicidal effect rating, J: blackgrass (blackgrass [6]): 0 (Herbicidal rate of 5% or less (almost no effect)); herbicidal effect rating, M: velvetleaf (velvetleaf): 5 (Herbicidal rate of 90% or more (almost completely withered)); herbicidal effect rating, N: redroot pigweed (redroot pigweed): 5 (Herbicidal rate of 90% or more (almost completely withered)); herbicidal effect rating, O: lambsquarters (lambsquarters [3]): 5 (Herbicidal rate of 90% or more (almost completely withered)); herbicidal effect rating, P: chickweed (chickweed): 4 (Herbicidal rate of 70% or more and less than 90%); effect on wild oat (I) (wild oat; [8]): 4 (Herbicidal rate of 70% or more and less than 90%); effect on blackgrass (J) (blackgrass [4]; [8]): 3 (Herbicidal rate of 40% or more and less than 70%); effect on Italian ryegrass (K) (Italian ryegrass; [8]): 5 (Herbicidal rate of 90% or more (almost completely withered)); effect on windgrass (L) (windgrass; [8]): 5 (Herbicidal rate of 90% or more (almost completely withered)); effect on lambsquarters (O) (lambsquarters [5]; [8]): 5 (Herbicidal rate of 90% or more (almost completely withered)) |
| COc1cc(F)ccc1-c1sc2ccc(Cl)cc2c1-c1c(O)c(C)nn(C)c1=O [Compound No. 2-095, 4-(5-chloro-2-(4-fluoro-2-methoxyphenyl)benzo[b]thiophen-3-yl)-5-hydroxy-2,6-dimethylpyridazin-3(2H)-one] | 0 (Herbicidal rate of 5% or less (almost no effect)) | – | – | – | – | – | – | – | – | – | – | – | – | – | – | – | 5 (Herbicidal rate of 90% or more (almost completely withered)) | 4 (Herbicidal rate of 70% or more and less than 90%) | 3 (Herbicidal rate of 40% or more and less than 70%) | 4 (Herbicidal rate of 70% or more and less than 90%) | herbicidal effect rating, H: barnyard grass (barnyard grass [2]): 4 (Herbicidal rate of 70% or more and less than 90%); herbicidal effect rating, J: blackgrass (blackgrass [6]): 3 (Herbicidal rate of 40% or more and less than 70%); herbicidal effect rating, M: velvetleaf (velvetleaf): 0 (Herbicidal rate of 5% or less (almost no effect)); herbicidal effect rating, N: redroot pigweed (redroot pigweed): 4 (Herbicidal rate of 70% or more and less than 90%); herbicidal effect rating, O: lambsquarters (lambsquarters [3]): 5 (Herbicidal rate of 90% or more (almost completely withered)); herbicidal effect rating, P: chickweed (chickweed): 3 (Herbicidal rate of 40% or more and less than 70%); herbicidal effect on I: wild oat (wild oat; [9]): 4 (Herbicidal rate of 70% or more and less than 90%); herbicidal effect on J: blackgrass (blackgrass [4]; [9]): 4 (Herbicidal rate of 70% or more and less than 90%); herbicidal effect on K: Italian ryegrass (Italian ryegrass; [9]): 3 (Herbicidal rate of 40% or more and less than 70%); herbicidal effect on L: windgrass (windgrass; [9]): 5 (Herbicidal rate of 90% or more (almost completely withered)); herbicidal effect on O: lambsquarters (lambsquarters [5]; [9]): 5 (Herbicidal rate of 90% or more (almost completely withered)) |
